Assay results reported in patent US12472170B2, “Use of glutamate 2B receptor antagonists and sigma receptor agonists as antitussives” (Seyltx, Inc., priority 2019, dated 2025).
Where “and” joins values, the source holds several entries; their conditions need not be identical. Equal entries are not always repeated.

Tested on: citric acid (1M) evoked cough in guinea pigs
Experiment: Citric acid (1M) aerosol-evoked coughs and sneezes in conscious guinea pigs after oral pre-treatment
Type: in vivo, Male Dunkin Hartley guinea pigs
Method: The guinea pig species used in one study was twenty four Male Dunkin Hartley guinea pigs, each weighing between 300 and 350 g, which were supplied by Marshall Bioresources Ltd, UK.
A test compound, Ifenprodil, and Gefapixant (in powder form) were prepared and formulated by initially adding 100% propylene glycol at the required volume for the final treatment buffer. The additional buffer ingredients were added in a stepwise fashion, initially solutol and then captisol. Each ingredient was added in a volume equivalent to that which is required for the final volume of treatment buffer for the stock formulation.
In particular, for Gefapixant, this was 0.7 mg/mL, a concentration that delivers 3.5 mg/Kg in a dose volume of 5 mL/Kg. For Ifenprodil, this was 0.3 mg/mL, a concentration that delivers 1.5 mg/Kg in a dose volume of 5 mL/Kg.
Prior to the addition of each buffer ingredient, the test compound formulations were sonicated for 15 min using a Branson 1510 Sonicator. Afterwards, the initial formulation of the test compound and Gefapixant were diluted with a prepared buffer vehicle to provide additional dosing formulations. This was 0.01 to 0.2 mg/ml, preferably 0.06 mg/mL, a dose that delivers 0.3 mg/Kg in a dose volume of 5 mL/Kg.
The final test compound buffer vehicle comprised of 10:10:80 mix of propylene glycol:20% Solutol in PBS:5% Captisol in PBS.
All final test and control formulations were sonicated for 30 min prior to dosing to generate an even suspension or to ensure that the formulation had visibly dissolved.
The animals were first pre-treated (5 mL/Kg, p.o.) with the vehicle, the test compound, or Gefapixant prior to tussive agent (citric acid) exposure, using the amounts set out in Table 1 below. In each case, the route of administration of the treatment was oral.
Animals receiving Gefapixant (3.5 mg/Kg) were dosed 2 hours prior to tussive agent exposure. Animals receiving Ifenprodil (1.5 mg/Kg) were dosed 30 minutes prior to tussive agent exposure.
10 min prior to the tussive evaluation, each animal was individually placed into a purpose built exposure chamber with a supplied airflow through a nebuliser of 2 L/min, and allowed to settle into its new environment.
Following the acclimatisation period, each animal was then exposed for 10 min to an aerosol of 1M citric acid using an ultrasonic nebuliser (Aerogen) set at a nominal liquid consumption rate of 0.6 mL/min.
Coughs and sneezes elicited during the 10 minute aerosol of 1M citric acid, and a subsequent 5 minute observation period, were recorded manually to monitor the animal's welfare. […] The data was analysed for onset of cough, cough numbers and frequency, and sneezes.
The following measurements and assessments were taken for each guinea pig: • Mean total number of coughs evoked in each treatment group • Mean onset of first cough in each group • Mean number of coughs per minute during citric acid exposure in each treatment group
Inter-group deviations were statistically analyzed by a one-way analysis of variance (ANOVA). In the case of significant difference in the mean values among the different levels of treatment, comparisons versus the citric acid vehicle group were carried out using the Dunnett's test. p<0.05 was considered statistically significant.

[1] = Mean of n=6 animals, 10 min Citric acid (1M) exposure, Gefapixant 3.5 mg/Kg p.o., Ifenprodil 1.5 mg/Kg
[2] = Mean of n=6 animals, Post Exposure (5 mins) after 10 min Citric acid (1M), Gefapixant 3.5 mg/Kg p.o., Ifenprodil 1.5 mg/Kg
[3] = Total of n=6 animals, 10 min Citric acid (1M) exposure, Gefapixant 3.5 mg/Kg p.o., Ifenprodil 1.5 mg/Kg
[4] = Total of n=6 animals, Post Exposure (5 mins) after 10 min Citric acid (1M), Gefapixant 3.5 mg/Kg p.o., Ifenprodil 1.5 mg/Kg
[5] = individual animals (ID 1-6), 10 min Citric acid (1M) exposure, Gefapixant 3.5 mg/Kg p.o., Ifenprodil 1.5 mg/Kg
[6] = individual animals (ID 1-6), Post Exposure (5 mins) after 10 min Citric acid (1M), Gefapixant 3.5 mg/Kg p.o., Ifenprodil 1.5 mg/Kg

C[C@@H]([C@H](O)c1ccc(O)cc1)N1CCC(Cc2ccccc2)CC1 (racemic) [Ifenprodil, 4-[2-(4-benzylpiperidin-1-ium-1-yl)-1-hydroxypropyl] phenol; 2,3,4-trihydroxy-4-oxobutanoate]
Total Coughs, Mean (10 min citric acid (1M) exposure + 5 min post exposure, group mean, n=6): 17.17 | Total Coughs, individual animal (10 min citric acid (1M) exposure + 5 min post exposure, individual animals 1-6): 16 (2×) and 17 and 23 and 19 and 12 | average number of coughs per animal (total number of coughs) (10 min citric acid (1M) exposure + 5 min recovery, Gefapixant 3.5 mg/Kg p.o. 2 hrs prior, Ifenprodil 1.5 mg/Kg p.o. 30 min prior, n=6): 17.17 coughs per animal | reduction in mean cough frequency vs untreated control (Ifenprodil 1.5 mg/kg (p<0.01), Gefapixant 3.5 mg/kg (p<0.05)): 42% | Sneezes, Observation Period 0-1, group Mean [1]: 0.2 | Sneezes, Observation Period 1-2, group Mean [1]: 0.5 | Sneezes, Observation Period 2-3, group Mean [1]: 0.3 | Sneezes, Observation Period 3-4, group Mean [1]: 0.3 | Sneezes, Observation Period 4-5, group Mean [1]: 0.5 | Sneezes, Observation Period 5-6, group Mean [1]: 0.3 | Sneezes, Observation Period 6-7, group Mean [1]: 0.7 | Sneezes, Observation Period 7-8, group Mean [1]: 0.5 | Sneezes, Observation Period 8-9, group Mean [1]: 0.0 | Sneezes, Observation Period 9-10, group Mean [1]: 0.0 | Sneezes, Observation Period 10-11, group Mean [2]: 0.0 | Sneezes, Observation Period 11-12, group Mean [2]: 0.0 | Sneezes, Observation Period 12-13, group Mean [2]: 0.0 | Sneezes, Observation Period 13-14, group Mean [2]: 0.0 | Sneezes, Observation Period 14-15, group Mean [2]: 0.0 | Total Sneezes, group Mean (Mean of n=6 animals, whole observation period 0-15 (10 min Citric acid (1M) exposure + Post Exposure 5 mins), Gefapixant 3.5 mg/Kg p.o., Ifenprodil 1.5 mg/Kg): 3.33 | Sneezes, Observation Period 0-1, group Total [3]: 1.0 | Sneezes, Observation Period 1-2, group Total [3]: 3.0 | Sneezes, Observation Period 2-3, group Total [3]: 2.0 | Sneezes, Observation Period 3-4, group Total [3]: 2.0 | Sneezes, Observation Period 4-5, group Total [3]: 3.0 | Sneezes, Observation Period 5-6, group Total [3]: 2.0 | Sneezes, Observation Period 6-7, group Total [3]: 4.0 | Sneezes, Observation Period 7-8, group Total [3]: 3.0 | Sneezes, Observation Period 8-9, group Total [3]: 0.0 | Sneezes, Observation Period 9-10, group Total [3]: 0.0 | Sneezes, Observation Period 10-11, group Total [4]: 0.0 | Sneezes, Observation Period 11-12, group Total [4]: 0.0 | Sneezes, Observation Period 12-13, group Total [4]: 0.0 | Sneezes, Observation Period 13-14, group Total [4]: 0.0 | Sneezes, Observation Period 14-15, group Total [4]: 0.0 | first onset of cough (citric acid (1M) exposure, Gefapixant 3.5 mg/Kg p.o., Ifenprodil 1.5 mg/Kg p.o., group mean, n=6): 59.8 s | average number of sneezes per animal (citric acid (1M) exposure, Gefapixant 3.5 mg/Kg p.o., Ifenprodil 1.5 mg/Kg p.o., n=6): 3.33 sneezes per animal | Onset (sec), Mean (citric acid (1M) exposure, group mean, n=6): 59.8 s | Onset (sec), individual animal (citric acid (1M) exposure, individual animals 1-6): 65 sec and 69 sec and 43 sec (2×) and 72 sec and 67 sec | Sneezes, Observation Period 0-1 [5]: 0 (5×) and 1 | Sneezes, Observation Period 1-2 [5]: 1 (3×) and 0 (3×) | Sneezes, Observation Period 2-3 [5]: 0 (4×) and 1 (2×) | Sneezes, Observation Period 3-4 [5]: 1 (2×) and 0 (4×) | Sneezes, Observation Period 4-5 [5]: 0 (4×) and 1 and 2 | Sneezes, Observation Period 5-6 [5]: 1 (2×) and 0 (4×) | Sneezes, Observation Period 6-7 [5]: 1 (4×) and 0 (2×) | Sneezes, Observation Period 7-8 [5]: 0 (3×) and 1 (3×) | Sneezes, Observation Period 8-9 [5]: 0 | Sneezes, Observation Period 9-10 [5]: 0 | Sneezes, Observation Period 10-11 [6]: 0 | Sneezes, Observation Period 11-12 [6]: 0 | Sneezes, Observation Period 12-13 [6]: 0 | Sneezes, Observation Period 13-14 [6]: 0 | Sneezes, Observation Period 14-15 [6]: 0 | Total Sneezes (individual animals (ID 1-6), whole observation period 0-15 (10 min Citric acid (1M) exposure + Post Exposure 5 mins), Gefapixant 3.5 mg/Kg p.o., Ifenprodil 1.5 mg/Kg): 4 and 3 (3×) and 5 and 2 | Cough, observation period 0-1, Mean (min 0-1 of citric acid (1M) exposure, group mean, n=6): 0.7 | Cough, observation period 0-1, individual animal (min 0-1 of citric acid (1M) exposure, individual animals 1-6): 0 (3×) and 1 (2×) and 2 | Cough, observation period 0-1, Total (min 0-1 of citric acid (1M) exposure, sum over 6 animals): 4.0 | Cough, observation period 1-2, Mean (min 1-2 of citric acid (1M) exposure, group mean, n=6): 1.5 | Cough, observation period 1-2, individual animal (min 1-2 of citric acid (1M) exposure, individual animals 1-6): 1 (3×) and 2 (3×) | Cough, observation period 1-2, Total (min 1-2 of citric acid (1M) exposure, sum over 6 animals): 9.0 | Cough, observation period 2-3, Mean (min 2-3 of citric acid (1M) exposure, group mean, n=6): 2.3 | Cough, observation period 2-3, individual animal (min 2-3 of citric acid (1M) exposure, individual animals 1-6): 3 (4×) and 2 and 0 | Cough, observation period 2-3, Total (min 2-3 of citric acid (1M) exposure, sum over 6 animals): 14.0 | Cough, observation period 3-4, Mean (min 3-4 of citric acid (1M) exposure, group mean, n=6): 2.2 | Cough, observation period 3-4, individual animal (min 3-4 of citric acid (1M) exposure, individual animals 1-6): 3 (2×) and 2 (3×) and 1 | Cough, observation period 3-4, Total (min 3-4 of citric acid (1M) exposure, sum over 6 animals): 13.0 | Cough, observation period 4-5, Mean (min 4-5 of citric acid (1M) exposure, group mean, n=6): 2.5 | Cough, observation period 4-5, individual animal (min 4-5 of citric acid (1M) exposure, individual animals 1-6): 3 (4×) and 2 and 1 | Cough, observation period 4-5, Total (min 4-5 of citric acid (1M) exposure, sum over 6 animals): 15.0 | Cough, observation period 5-6, Mean (min 5-6 of citric acid (1M) exposure, group mean, n=6): 2.3 | Cough, observation period 5-6, individual animal (min 5-6 of citric acid (1M) exposure, individual animals 1-6): 2 (4×) and 3 (2×) | Cough, observation period 5-6, Total (min 5-6 of citric acid (1M) exposure, sum over 6 animals): 14.0 | Cough, observation period 6-7, Mean (min 6-7 of citric acid (1M) exposure, group mean, n=6): 1.3 | Cough, observation period 6-7, individual animal (min 6-7 of citric acid (1M) exposure, individual animals 1-6): 1 (3×) and 2 and 0 and 3 | Cough, observation period 6-7, Total (min 6-7 of citric acid (1M) exposure, sum over 6 animals): 8.0 | Cough, observation period 7-8, Mean (min 7-8 of citric acid (1M) exposure, group mean, n=6): 1.7 | Cough, observation period 7-8, individual animal (min 7-8 of citric acid (1M) exposure, individual animals 1-6): 1 (2×) and 2 (4×) | Cough, observation period 7-8, Total (min 7-8 of citric acid (1M) exposure, sum over 6 animals): 10.0 | Cough, observation period 8-9, Mean (min 8-9 of citric acid (1M) exposure, group mean, n=6): 1.0 | Cough, observation period 8-9, individual animal (min 8-9 of citric acid (1M) exposure, individual animals 1-6): 0 (2×) and 1 (3×) and 3 | Cough, observation period 8-9, Total (min 8-9 of citric acid (1M) exposure, sum over 6 animals): 6.0 | Cough, observation period 9-10, Mean (min 9-10 of citric acid (1M) exposure, group mean, n=6): 0.8 | Cough, observation period 9-10, individual animal (min 9-10 of citric acid (1M) exposure, individual animals 1-6): 1 (3×) and 0 (2×) and 2 | Cough, observation period 9-10, Total (min 9-10 of citric acid (1M) exposure, sum over 6 animals): 5.0 | Cough, observation period 10-11, Mean (min 10-11, post exposure, group mean, n=6): 0.7 | Cough, observation period 10-11, individual animal (min 10-11, post exposure, individual animals 1-6): 0 (2×) and 1 (4×) | Cough, observation period 10-11, Total (min 10-11, post exposure, sum over 6 animals): 4.0 | Cough, observation period 11-12, Mean (min 11-12, post exposure, group mean, n=6): 0.2 | Cough, observation period 11-12, individual animal (min 11-12, post exposure, individual animals 1-6): 1 and 0 (5×) | Cough, observation period 11-12, Total (min 11-12, post exposure, sum over 6 animals): 1.0 | Cough, observation period 12-13, Mean (min 12-13, post exposure, group mean, n=6): 0.0 | Cough, observation period 12-13, individual animal (min 12-13, post exposure, individual animals 1-6): 0 | Cough, observation period 12-13, Total (min 12-13, post exposure, sum over 6 animals): 0.0 | Cough, observation period 13-14, Mean (min 13-14, post exposure, group mean, n=6): 0.0 | Cough, observation period 13-14, individual animal (min 13-14, post exposure, individual animals 1-6): 0 | Cough, observation period 13-14, Total (min 13-14, post exposure, sum over 6 animals): 0.0 | Cough, observation period 14-15, Mean (min 14-15, post exposure, group mean, n=6): 0.0 | Cough, observation period 14-15, individual animal (min 14-15, post exposure, individual animals 1-6): 0 | Cough, observation period 14-15, Total (min 14-15, post exposure, sum over 6 animals): 0.0 | anti-tussive effect (in words) (oral administration, conscious guinea pigs with citric acid): shows efficacy in preventing and/or alleviating coughing
